In patent US20100063065A1 (Inpharmatica Limited, priority 2005, published 2010) one finds EC50 data, which are given here for 32 compounds.

For this test, the target named is T1, PPARδ (Homo sapiens, UniProt Q03181).
T1 construct: fused to amino acids 147-441 of PPARδ downstream of CMV promoter; expressed in transfected cells; host or cells: HEK293 cells, transiently transfected with pFACMV-PPARδ using Fugene
T1 sequence (Q03181 147-441): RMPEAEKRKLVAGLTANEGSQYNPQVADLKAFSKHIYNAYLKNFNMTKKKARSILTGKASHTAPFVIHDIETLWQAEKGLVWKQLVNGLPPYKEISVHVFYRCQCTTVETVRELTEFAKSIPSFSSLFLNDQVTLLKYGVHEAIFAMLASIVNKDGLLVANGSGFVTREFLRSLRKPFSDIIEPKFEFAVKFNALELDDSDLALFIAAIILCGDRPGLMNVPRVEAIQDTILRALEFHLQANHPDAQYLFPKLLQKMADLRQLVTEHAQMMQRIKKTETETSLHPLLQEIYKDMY
Briefly: Transactivation assay (PPARδ GAL4 assay) in transiently transfected HEK293 cells. The class given is cell-based. The settings on record: luciferase reporter, Table 1. As for the experimental part:
Compounds were screened for their functional potency in transiently transfected HEK293 cells for their ability to activate PPAR subtypes. Cells were cultured in DMEM (Invitrogen) supplemented with 10% foetal calf serum, glutamine, penicillin and streptomycin and plated at 10 000 cells/well of a 96-well solid white plate and incubated at 37° C./5% CO2 for 24 hours. Media was removed and the cells washed with PBS. Cells were then transiently transfected using Fugene (Roche) with 50 ng pFACMV-PPARδ (plasmid encoding amino acids 1-147 of the GAL4 DNA binding domain, fused to amino acids 147-441 of PPARδ downstream of CMV promoter) and 250 ng pFR-Luc (reporter plasmid containing 5×GAL4 response elements upstream of a luciferase gene), using a ratio of 3:1 Fugene:DNA. 100 μl of this transfection mixture in DMEM (without foetal calf serum) was added to each well, and the incubation continued for a further 24 hours. The cells are then again washed with PBS prior to the addition of 100 μl reduced serum medium (OptiMEM; Invitrogen). Compounds were added (10 μl in 2% DMSO in OptiMEM) to achieve final concentrations between 0-30 μM. The cells were then returned to the incubator for a further 24 hours. 100 μl of luciferase reagent (Bright Glo, Promega) was added directly to each well, and the luminescence determined using a suitable luminometer.
To measure the selectivity of compounds, their ability to transactivate GAL4 fusions of PPARα LBD and PPARγ LBD was determined. The activity of compounds was expressed as a percentage relative to control compounds: PPARγ rosiglitazone (BRL 49653), PPARδ GW501516 (11) or PPARα KCL1999000269 (12). EC50 values were calculated by fitting of the data to a sigmoidal dose response curve.
(In a reporter assay the amount or activity of a reporter protein is the signal.)

Broadly, the EC50 is the concentration at which the effect is half-maximal. High values mean a less potent agent, low ones a more potent agent.

Where a name gives a salt, the structure may show the parent alone.

`CCc1cc(C(=O)c2ccc(-c3cnn(C)c3)cc2)c(NC(=O)CSCC(=O)O)s1` [Example 42, ({5-Ethyl-3-[4-(1-methyl-1H-pyrazol-4-yl)-benzoyl]-thiophen-2-ylcarbamoyl}-methylsulfanyl)-acetic acid] registered an EC50 of 1000 to 30000 nM.

On to `CCc1cc(C(=O)c2cccc(-c3ccc(F)cc3)c2)c(NC(=O)CSCC(=O)O)s1` [Example 43], for which the EC50 lay in the range of 100 to 1000 nM.

In the case of `CCc1cc(C(=O)c2cccc(-c3ccc(OC(F)(F)F)cc3)c2)c(NC(=O)CSCC(=O)O)s1` [Example 44, {[5-Ethyl-3-(4′-trifluoromethoxy-biphenyl-3-carbonyl)-thiophen-2-ylcarbamoyl]-methylsulfanyl}-acetic acid], the EC50 fell in the range of 100 to 1000 nM.

For `CCc1cc(C(=O)c2ccc(C(F)(F)F)cc2)c(NC(=O)CSCC(=O)O)s1` [Example 45, {[5-Ethyl-3-(4-trifluoromethylbenzoyl)-thiophen-2-ylcarbamoyl]-methylsulfanyl}-acetic acid], the EC50 was under 100 nM.

`CCc1cc(C(=O)c2cccc3ccccc23)c(NC(=O)CSCC(=O)O)s1` [Example 46, {[5-Ethyl-3-(naphthalene-1-carbonyl)-thiophen-2-ylcarbamoyl]-methylsulfanyl}-acetic acid] showed an EC50 of 1000 to 30000 nM.

In the case of `CCc1cc(C(=O)c2ccc3ccccc3c2)c(NC(=O)CSCC(=O)O)s1` [Example 47, {[5-Ethyl-3-(naphthalene-2-carbonyl)-thiophen-2-ylcarbamoyl]-methylsulfanyl}-acetic acid], the EC50 lay within 100 to 1000 nM.

As to `CCc1cc(C(=O)c2cccc(OC)c2)c(NC(=O)CSCC(=O)O)s1` [Example 48, {[5-Ethyl-3-(3-methoxybenzoyl)-thiophen-2-ylcarbamoyl]-methylsulfanyl}-acetic acid], the EC50 fell in the range of 1000 to 30000 nM.

With `CCc1cc(C(=O)c2ccc(OC)c(OC)c2)c(NC(=O)CSCC(=O)O)s1` [Example 49, {[3-(3,4-Dimethoxybenzoyl)-5-ethyl-thiophen-2-ylcarbamoyl]-methylsulfanyl}-acetic acid], the EC50 was in the range of 1000 to 30000 nM.

Turning to `CCc1cc(C(=O)c2ccc(C(C)(C)C)cc2)c(NC(=O)CSCC(=O)O)s1` [Example 50, {[3-(4-tert-Butyl-benzoyl)-5-ethyl-thiophen-2-ylcarbamoyl]-methylsulfanyl}-acetic acid], the EC50 was 1000 to 30000 nM.

Take `CCc1cc(C(=O)c2ccc(C)c(C)c2)c(NC(=O)CSCC(=O)O)s1` [Example 51, {[3-(3,4-Dimethyl-benzoyl)-5-ethyl-thiophen-2-ylcarbamoyl]-methylsulfanyl}-acetic acid]: the concentration giving a half-maximal response (EC50) fell in the range of 1000 to 30000 nM.

For `CCc1cc(C(=O)c2ccc(C)c(C)c2)c(NC(=O)CC(C)(C)CC(=O)O)s1` [Example 52, 4-[3-(3,4-Dimethyl-benzoyl)-5-ethyl-thiophen-2-ylcarbamoyl]-3,3-dimethyl-butyric acid], the EC50 was in the range of 1000 to 30000 nM.

The compound `CCc1cc(C(=O)c2ccc(C)c(C)c2)c(NC(=O)CC2(CC(=O)O)CCCC2)s1` [Example 53, (1-{[3-(3,4-Dimethyl-benzoyl)-5-ethyl-thiophen-2-ylcarbamoyl]-methyl}-cyclopentyl)-acetic acid] yielded an EC50 of 1000 to 30000 nM.

`CCc1cc(C(=O)c2ccc(C)c(C)c2)c(NC(=O)CSC(C)(C)C(=O)O)s1` [Example 54, 2-{[3-(3,4-Dimethyl-benzoyl)-5-ethyl-thiophen-2-ylcarbamoyl]-methylsulfanyl}-2-methyl-propionic acid] showed an EC50 of 100 to 1000 nM.

With `CCc1cc(C(=O)c2ccc(OC)nc2)c(NC(=O)CSCC(=O)O)s1` [Example 55, {[5-Ethyl-3-(6-methoxy-pyridine-3-carbonyl)-thiophen-2-ylcarbamoyl]-methylsulfanyl}-acetic acid], the EC50 was 1000 to 30000 nM.

On to `CCc1cc(C(=O)c2ccc(OC)nc2)c(NC(=O)CC2(CC(=O)O)CCCC2)s1` [Example 56, (1-{[5-Ethyl-3-(6-methoxy-pyridine-3-carbonyl)-thiophen-2-ylcarbamoyl]-methyl}-cyclopentyl)-acetic acid], for which the EC50 is 1000 to 30000 nM.

Turning to `CCc1cc(C(=O)c2ccc(C(F)(F)F)nc2)c(NC(=O)CSCC(=O)O)s1` [Example 57, {[5-Ethyl-3-(6-trifluoromethyl-pyridine-3-carbonyl)-thiophen-2-ylcarbamoyl]-methylsulfanyl}-acetic acid], the EC50 lay in the range of 1000 to 30000 nM.

Consider `CCc1cc(C(=O)c2ccc(OC(C)C)nc2)c(NC(=O)CSCC(=O)O)s1` [Example 58, {[5-Ethyl-3-(6-isopropoxy-pyridine-3-carbonyl)-thiophen-2-ylcarbamoyl]-methylsulfanyl}-acetic acid], for which the EC50 fell in the range of 100 to 1000 nM.

The compound `CCc1cc(C(=O)c2cnc(OC(C)C)c(Cl)c2)c(NC(=O)CSCC(=O)O)s1` [Example 59, {[3-(5-Chloro-6-isopropoxy-pyridine-3-carbonyl)-5-ethyl-thiophen-2-ylcarbamoyl]-methylsulfanyl}-acetic acid] had an EC50 of 100 to 1000 nM.

Regarding `CCc1cc(C(=O)c2ccc(Oc3ccccc3)nc2)c(NC(=O)CSCC(=O)O)s1` [Example 60, {[5-Ethyl-3-(6-phenoxy-pyridine-3-carbonyl)-thiophen-2-ylcarbamoyl]-methylsulfanyl}-acetic acid], the EC50 is 1000 to 30000 nM.

`COc1ccc(C(=O)c2cc(C)sc2NC(=O)CSCC(=O)O)cc1` [Example 61, {[3-(4-Methoxy-benzoyl)-5-methyl-thiophen-2-ylcarbamoyl]-methylsulfanyl}-acetic acid] returned an EC50 of 1000 to 30000 nM.

On to `COc1ccc(C(=O)c2cc(C(C)C)sc2NC(=O)CSCC(=O)O)cc1` [Example 62, {[5-Isopropyl-3-(4-methoxy-benzoyl)-thiophen-2-ylcarbamoyl]-methylsulfanyl}-acetic acid], for which the EC50 fell in the range of 1000 to 30000 nM.

Regarding `CCCc1cc(C(=O)c2ccc(OC)cc2)c(NC(=O)CSCC(=O)O)s1` [Example 63, {[3-(4-Methoxybenzoyl)-5-propyl-thiophen-2-ylcarbamoyl]-methylsulfanyl}-acetic acid], the EC50 was in the range of 1000 to 30000 nM.

The compound `O=C(O)CSCC(=O)Nc1sc(C2CC2)cc1C(=O)c1ccc(F)cc1` [Example 64, {[5-Cyclopropyl-3-(4-fluoro-benzoyl)-thiophen-2-ylcarbamoyl]-methylsulfanyl}-acetic acid] registered an EC50 of 1000 to 30000 nM.

`COc1ccc(C(=O)c2cc(Cl)sc2NC(=O)CSCC(=O)O)cn1` [Example 65, {[5-Chloro-3-(6-methoxy-pyridine-3-carbonyl)-thiophen-2-ylcarbamoyl]-methylsulfanyl}-acetic acid] returned an EC50 of 1000 to 30000 nM.

For `COc1ccc(C(=O)c2cc(Cl)sc2NC(=O)CSCC(=O)O)cc1` [Example 66, {[5-Chloro-3-(4-methoxy-benzoyl)-thiophen-2-ylcarbamoyl]-methylsulfanyl}-acetic acid], the EC50 fell in the range of 1000 to 30000 nM.

As to `O=C(O)CSCC(=O)Nc1sc(Cl)cc1C(=O)c1ccc(OC(F)(F)F)cc1` [Example 67, {[5-Chloro-3-(4-trifluoromethoxy-benzoyl)-thiophen-2-ylcarbamoyl]-methylsulfanyl}-acetic acid], the EC50 is under 100 nM.

`COc1ccc(C(=O)c2ccsc2NC(=O)CSCC(=O)O)cc1` [Example 68, {[3-(4-Methoxy-benzoyl)-thiophen-2-ylcarbamoyl]-methylsulfanyl}-acetic acid] had an EC50 of 1000 to 30000 nM.

As for `CCc1cc(C(=O)c2ccc(OC)cc2)c(NC(=O)CCCCC(=O)O)s1` [Example 69, 5-[5-Ethyl-3-(4-methoxy-benzoyl)-thiophen-2-ylcarbamoyl]-pentanoic acid], the EC50 lay within 1000 to 30000 nM.

`CCc1cc(C(=O)c2ccc(OC)cc2)c(NC(=O)CCCSCC(=O)O)s1` [Example 71, {3-[5-Ethyl-3-(4-methoxy-benzoyl)-thiophen-2-ylcarbamoyl]-propylsulfanyl}-acetic acid] registered an EC50 of 100 to 1000 nM.

`CCc1cc(C(=O)c2ccc(OC)cc2)c(NC(=O)C(C)SCC(=O)O)s1` (centres unmarked) [Example 72, {1-[5-Ethyl-3-(4-methoxy-benzoyl)-thiophen-2-ylcarbamoyl]-ethylsulfanyl}-acetic acid]: the EC50 fell in the range of 100 to 1000 nM.

In turn, `CCc1cc(C(=O)c2ccc(OC)cc2)c(NC(=O)CN(C)CC(=O)O)s1` [Example 73, ({[5-Ethyl-3-(4-methoxy-benzoyl)-thiophen-2-ylcarbamoyl]-methyl}-methyl-amino)-acetic acid hydrochloride] registered an EC50 of 1000 to 30000 nM.

Consider `CCc1cc(C(=O)c2ccc(OC)cc2)c(NC(=O)CNCC(=O)O)s1` [Example 74, ({[5-Ethyl-3-(4-methoxy-benzoyl)-thiophen-2-ylcarbamoyl]-methyl}-amino)-acetic acid hydrochloride], for which the EC50 lay within 1000 to 30000 nM.
